Experimental data as given in the supplement of paper PMC9912026.

System: HT29
Assay: pERK immunofluorescence normalised to no-drug reference (=1); higher = more ERK phosphorylation (less pathway inhibition)
Conditions: drug treatment time 24 h, EGF time 8 h
Experimental: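 A375 CRISPRa-EGFR (A375_aEGFR2) or HT29 cells were treated with two-drug dose combinations (vemurafenib, LY3009120, cobimetinib) for 24 h, then stimulated with EGF (100 ng/mL) or mock medium for 8 h. pERK (T202/Y204) was measured by immunofluorescence as the cytosolic population average, normalised to an untreated no-drug reference of the block (=1). Averages of 2 technical replicates. A375 in 5% FBS, HT29 in 10% FBS.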

CCCS(=O)(=O)Nc1ccc(F)c(C(=O)c2c[nH]c3ncc(-c4ccc(Cl)cc4)cc23)c1F [Vemurafenib] + O=C(c1ccc(F)c(F)c1Nc1ccc(I)cc1F)N1CC(O)([C@@H]2CCCCN2)C1 [Cobimetinib]
pERK immunofluorescence normalised
Conditions	drug B concentration 0 µM	drug B concentration 0.0001 µM	drug B concentration 0.0003162 µM	drug B concentration 0.001 µM	drug B concentration 0.00316228 µM	drug B concentration 0.01 µM	drug B concentration 0.0316228 µM	drug B concentration 0.1 µM	drug B concentration 0.316228 µM	drug B concentration 1 µM
drug A concentration 0 µM, EGF 0 ng/mL	–	1.1	0.976	0.886	0.53	0.231	0.148	0.115	0.102	0.0988
drug A concentration 0 µM, EGF 100 ng/mL	–	1.01	0.982	0.979	0.936	0.829	0.673	0.483	0.218	0.117
drug A concentration 0.000316 µM, EGF 0 ng/mL	1	1.07	1.06	0.85	0.482	0.233	0.136	0.102	0.0952	0.0916
drug A concentration 0.000316 µM, EGF 100 ng/mL	1.1	1.09	1.13	1.03	1.03	0.928	0.82	0.539	0.227	0.111
drug A concentration 0.001 µM, EGF 0 ng/mL	1.05	1.06	1.03	0.855	0.463	0.217	0.127	0.106	0.0917	0.0915
drug A concentration 0.001 µM, EGF 100 ng/mL	1.05	1.11	1.14	1.08	1.02	0.873	0.751	0.499	0.213	0.108
drug A concentration 0.00316 µM, EGF 0 ng/mL	1.07	1.06	1.02	0.836	0.463	0.225	0.132	0.0985	0.0922	0.0903
drug A concentration 0.00316 µM, EGF 100 ng/mL	1.05	1.13	1.17	1.04	1.03	0.887	0.769	0.496	0.213	0.106
drug A concentration 0.01 µM, EGF 0 ng/mL	0.924	0.922	0.868	0.73	0.416	0.201	0.124	0.0992	0.093	0.0898
drug A concentration 0.01 µM, EGF 100 ng/mL	1.03	1.04	1.04	0.958	1	0.902	0.738	0.473	0.213	0.107
drug A concentration 0.0316 µM, EGF 0 ng/mL	0.742	0.727	0.695	0.513	0.389	0.189	0.129	0.0998	0.0935	0.095
drug A concentration 0.0316 µM, EGF 100 ng/mL	0.843	0.912	0.902	0.933	0.854	0.818	0.699	0.467	0.211	0.109
drug A concentration 0.1 µM, EGF 0 ng/mL	0.43	0.429	0.451	0.339	0.213	0.148	0.124	0.109	0.101	0.1
drug A concentration 0.1 µM, EGF 100 ng/mL	0.824	0.844	0.967	0.948	0.882	0.755	0.699	0.437	0.212	0.112
drug A concentration 0.316228 µM, EGF 0 ng/mL	0.261	0.305	0.273	0.251	0.166	0.133	0.115	0.104	0.101	0.0973
drug A concentration 0.316228 µM, EGF 100 ng/mL	0.765	0.827	0.843	0.882	0.815	0.767	0.626	0.458	0.206	0.109
drug A concentration 1 µM, EGF 0 ng/mL	0.201	0.205	0.203	0.178	0.146	0.125	0.111	0.101	0.0945	0.0941
drug A concentration 1 µM, EGF 100 ng/mL	0.754	0.764	0.815	0.808	0.746	0.713	0.606	0.363	0.177	0.104
drug A concentration 3.16 µM, EGF 0 ng/mL	0.162	0.165	0.171	0.144	0.134	0.119	0.113	0.0971	0.0922	0.0932
drug A concentration 3.16 µM, EGF 100 ng/mL	0.69	0.73	0.731	0.772	0.663	0.562	0.414	0.215	0.115	0.093
drug A concentration 10 µM, EGF 0 ng/mL	0.187	0.177	0.202	0.185	0.158	0.133	0.106	0.091	0.0912	0.0919
drug A concentration 10 µM, EGF 100 ng/mL	0.541	0.517	0.524	0.486	0.441	0.323	0.187	0.107	0.0914	0.09
